# Laboratory results taken from US20200268864A1, “CANCER VACCINE COMPOSITIONS AND METHODS FOR USING SAME TO TREAT CANCER” (Dana-Farber Cancer Institute, Inc., priority 2017, published 2020).
# “Also recorded” adds a separate entry of the source. Residues, ends and D or L forms follow the SMILES beside them. *: point of attachment. Cbz = O=C(OCc1ccccc1)*; CH2F = FC*
# Columns and labels:
# [1] = tested on: PBM tumors (Trp53−/−; Brca1−/−; c-Myc); test: Orthotopic PBM tumor allograft growth and survival (bioluminescence); type: in vivo, mouse; conditions: PBM tumors; agent given together with olaparib
# Description: All animal experiments described in this study were performed according to the animal protocols approved by the DFCI Institutional Animal Care and Use Committee. Brca1^loxP/loxP [FVB/N] mice, bearing loxP sites in introns 4 and 13 of the Brca1 gene, and Trp53^loxP/loxP[FVB/N] mice bearing loxP in introns 2 and 10 of the p53 gene, were obtained from Dr. Jos Jonkers's laboratory (Netherlands Cancer Institute, Amsterdam, The Netherlands). These mice were intercrossed through multiple generations to create a colony of homozygous Trp53^loxP/loxP/Brca1^loxP/loxP double conditional knockout mice. Ovaries were harvested from 8-week-old female Trp53^loxP/loxP/Brca1^loxP/loxP mice. The ovaries were washed twice with phosphate-buffered and incubated in DMEM/F12 (Ham's) medium containing collagenase and dispase (stem cell technologies) for 40 min at 37° C. The epithelial cells were pelleted by centrifugation at 800×g and cultured in DMEM/F12 (Life Technologies) supplemented with 4% (vol/vol) FBS, 1% penicillin/streptomycin, 10 ng/mL EGF, 5 μg/mL insulin, 5 Cpg/mL transferrin, and 5 ng/mL sodium selenite. Ovarian surface epithelial (OSE) cells were cultured for 48 hr and then introduced with Adeno-Cre (University of Iowa) and lentiviruses expressing C-Myc gene (Addgene #36980) or control GFP. After two days of infection in vitro, OSE cells are aggregated and implanted into recipient mice. About 5×10^5 OSE cells (Trp53^−/−; Brca1^−/−; c-Myc) were injected into the right ovarian bursal cavities of 6- to 7-week-old female nude mice. In each mouse, the left ovarian bursa was injected with GFP-expressing OSE cells (Trp53^−/−; Brca1^−/−; GFP). PBM (Trp53^−/−; Brca1^−/−; c-Myc) ovarian tumors developed within three to six months after implantation of the genetically engineered OSE cells. The primary ovarian tumors were digested and orthotopically transplanted to FVB/NJ mice. The PPM GEM model (Trp53^−/−; Pten^−/−; c-Myc) was developed with OSE cells isolated from homozygous Trp53^loxP/loxP/Pten^loxP/loxP(FVB/NJ) double conditional knockout mice using the same strategy for generation of the PBM GEM model described above. For histological analysis, tumor pieces were fixed in 10% Formalin overnight and transferred to 70% ethanol. Embedding, sectioning and H&E staining was performed by scientists at the Harvard rodent histopathology core facility. The histological characteristics of high grade ovarian tumor were confirmed by two independent pathologists at Harvard Medical School.
# Single cells were obtained by digestion of primary ovarian tumors in collagenase buffer and then cultured in MOT media (DMEM/F12, 0.6% FBS, 10 ng/ml EGF, hydrocortisone 1 μg/ml, cholera toxin 1 ng/ml, 100 μg/ml penicillin-streptomycin, 5 μM Y27632). […] The endpoints were determined by tumor burden and ascites. […]
# [2] = tested on: STING pathway in BMDCs co-cultured with PBM cells; test: Co-culture of BMDCs with olaparib-treated PBM tumor cells; type: cell-based, mouse
# Description: (§1) Blood was obtained by retro-orbital sampling at intermediate time points or experimental end points. Blood cells and plasma/sera were separated by centrifugation at 1,500×g for 5 min. at 4° C. Plasmaisera were sent out to Eve Technologies for cytokine array analysis (Chemokine Array 31-Plex and Mouse Procarta IFN 2-plex Featured Assay). Plasma/sera were applied to ELISA according to manufacturer's instructions. For in vitro experiments, cell culture supernatants were obtained by centrifugation at 1,500×g for 5 min. at 4° C. to remove all debris and cells, and were then subjected to ELISA analysis. IFN-β was detected using the LEGEND MAX™ Mouse IFN-β ELISA Kit (BioLegend).
# Bone marrow cells were isolated from FVB/NJ mice and cultured in RPMI-1640 containing 10% FBS and 20 ng/ml GM-CSF. BMDCs (bone marrow derived dendritic cells) were harvested for in vitro co-culture assay on day 7 to day 10. About 3×10^5 PBM or PPM tumor cells were cultured in a 6-well plate for 24 hr. and then treated with DMSO or olaparib. After 24 hr incubation with DMSO, olaparib, or olaparib in combination with other drugs (cell cycle inhibitor or apoptosis inhibitor), drugs were removed and tumor cells were washed twice with PBS. BMDCs were added and co-cultured with PBM or PPM cells at a ratio of 1:1 in 1.5 ml culture media in the presence of GM-CSF (20 ng/ml) and lipofectamine (2 μl) for 24 hr. Co-cultured cells were harvested for flow cytometry analysis and floating cells (percentage of BMDCs is about 90%), or RNA analysis. Cell culture supernatants were collected for detection of IFN-β with the ELISA kit. BMDCs generated from C57BL/6J mice were applied for the coculture of BMDCs with ID8 tumor cells. Human dendritic cells purchased from Lonza were used for the coculture of human DCs with DMSO or olaparib-treated human ovarian cancer cells ([…] and UWB1.289+BRCA1).
# (§2) About 50 to 100 mg of tumor samples were homogenized in 1 ml of TRIzol™ Reagent supplied with 200 μl of stainless steel beads and 0.2 ml of chloroform was added to the samples. Samples were vortexed vigorously for 15 seconds and then incubated at room temperature for 2 to 3 minutes. After centrifugation at 12,000×g for 15 minutes at 4° C., upper aqueous phase of the samples was carefully removed to a new tube and the total RNA was purified using an RNeasy® Mini Kit (Qiagen) according to manufactory's instruction. For the in vitro cultured cell samples, total RNA was isolated using an RNeasy® Mini Kit. The qPCR was performed on an Applied Biosystems 7300 machine after the total RNA was reverse transcribed to cDNA using the SuperScript® III First-Strand Synthesis System (Invitrogen). Primers used for qPCR were as follows: […]
# STING signaling in BMDCs = test: BMDCs stimulated with STING agonist DMXAA; type: cell-based, mouse
# Description: as §1, §2
# [3] = tested on: Brca1-proficient and Brca1-deficient tumor cells; test: Measurement of IC50 value in tumor cells (MTS, 72 h); type: cell-based; conditions: three pairs of models; for gemcitabine except PPM and PBM cells
# Description: Tumor cells were seeded in 96-well plates at a density of 1000-3000/well and allowed to adhere overnight. Cells were then exposed to appropriate concentrations of therapeutic agents (or vehicle control) with continuous exposure for 72 h. Growth inhibition was measured by CellTiter Aqueous MTS reagent from Promega by comparing the absorbance at 490 nm of drug-treated cells to that of untreated controls set at 100%. 1C50 values were calculated using non-linear regression model (logarithmic inhibitor vs. normalized response-variable slope) in Graphpad Prism 7.
# [4] = tested on: STING pathway in BMDCs co-cultured with ID8 cells; test: Co-culture of BMDCs with drug-treated WT or Brca1-null ID8 cells; type: cell-based, mouse; conditions: co-cultured with both Brca1-deficient and Brca1 proficient ID8 cells
# Description: Brca-1 deficient ID8 cells were generated using a CRISPR double nickase plasmid. ID8 cells cultured in a 6-well plate were transfected with 2 μg/well of BRCA1 double nickase plasmid (sc419362-NIC, Santa Cruz Biotechnology) or control double nickase plasmid (SC-437281, Santa Cruz Biotechnology) using lipofectamine 3000 (Invitrogen). 48 hrs post-transfection, cells were passaged onto a 10 cm plate. After 24 h, puromycin (3 μg/mL) was added to the culture for selection. Puromycin resistant cells were selected and expanded. Due to a lack of a reliable mouse BRCA1 antibody for Western blot, cells were analyzed by DNA sequencing to confirm the disruption of functional Brca1 allele. To generate ID8 tumors, cultured ID8 cells were harvested and resuspended in serum free DMEM. Cells were then mixed with Matrigel (Corning). A total volume of 0.1 ml containing 5×10^6 ID8 cells and 40% Matrigel were injected subcutaneously into the flank of C57BL/6J mice.
# Bone marrow cells were isolated from FVB/NJ mice and cultured in RPMI-1640 containing 10% FBS and 20 ng/ml GM-CSF. BMDCs (bone marrow derived dendritic cells) were harvested for in vitro co-culture assay on day 7 to day 10. About 3×10^5 PBM or PPM tumor cells were cultured in a 6-well plate for 24 hr. and then treated with DMSO or olaparib. […]
structure (smiles),measurement,setting,value
O=C(NCCCNc1nc(Nc2cccc(NC(=O)N3CCCC3)c2)ncc1I)c1cccs1 [BX795],effect of added agent on olaparib-induced tumor inhibition / antitumor activity of olaparib,[1],blocked the anti-tumor activity of olaparib; also recorded: attenuated
same,effect on olaparib-induced IFNβ/CXCL10 expression and STING activation in co-cultured DCs,[2]; agent added to the co-culture,abrogated
same,effect on olaparib-induced phosphorylation of TBK1 in CD11c dendritic cells,[2]; agent added to the co-culture,reduced
same,effect on DMXAA-induced IFN-β production from BMDCs,"STING signaling in BMDCs; BX795 2 μM, 2 h",abolished
"Cc1ccc2c(=O)c3cccc(CC(=O)O)c3oc2c1C [DMXAA, 5,6-dimethylxanthenone-4-acetic acid]",IFN-β production from BMDCs in culture,"STING signaling in BMDCs; DMXAA 5 μg/ml, 2 h",strong IFN-β production
same,STING signaling in BMDCs,STING signaling in BMDCs; Western blot,activation of the STING signaling
Nc1ccn([C@@H]2O[C@H](CO)[C@@H](O)C2(F)F)c(=O)n1 [gemcitabine],"IC50 values, Brca1-deficient lines in comparison to Brca1-proficient counterparts",[3],no substantial differences
CC(=O)O[C@H]1C(=O)[C@@]2(C)[C@H]([C@H](OC(=O)c3ccccc3)[C@]3(O)C[C@H](OC(=O)[C@H](O)[C@@H](NC(=O)c4ccccc4)c4ccccc4)C(C)=C1C3(C)C)[C@]1(OC(C)=O)CO[C@@H]1C[C@@H]2O [paclitaxel],phosphorylation of TBK1 and IRF3 in BMDCs,[4],increased
same,"IC50 values, Brca1-deficient lines in comparison to Brca1-proficient counterparts",[3],no substantial differences
Cn1ncnc1[C@H]1c2n[nH]c(=O)c3cc(F)cc(c23)N[C@@H]1c1ccc(F)cc1 [talazoparib],"IC50 values, Brca1-deficient lines in comparison to Brca1-proficient counterparts",[3],much more sensitive
CC(NC(=O)C(NC(=O)OCc1ccccc1)C(C)C)C(=O)NC(CC(=O)O)C(=O)CF (stereo not drawn) [zVAD] (Cbz-Val-Ala-Asp-CH2F; configuration not given here),effect of apoptosis inhibitor on activation of DCs co-cultured with olaparib-treated PBM cells,"[2]; zVAD 10 μM with olaparib 2.5 μM, 24 h pre-treatment",little effect
